# Values joined by “and” are separate entries in the source; they are usually repeats but may differ in a detail not shown here. Equal values may be shown once.
# Columns and labels:
# Assay in all cases: In-cell proteome-wide competitive ABPP, HEK293: other DUBs and proteins
# [1] = target: DUBs and other proteins in HEK293 cells (Homo sapiens, UniProt Q7L5N1); conditions: for Log2 reporter intensity values, COPS6: TMT replicates; for Log2 reporter intensity values: COPS6: competition with ABP 2, DMSO substract (FC); for Log2 reporter intensity values: COPS6 / Log2 reporter intensity values: replicates A-C; for Log2 t-test Difference / Log2 reporter intensity values: COPS6
# [2] = target: DUBs and other proteins in HEK293 cells (Homo sapiens, UniProt O00303); conditions: for Log2 reporter intensity values, EIF3F: TMT replicates; for Log2 reporter intensity values: EIF3F: competition with ABP 2, DMSO substract (FC); for Log2 reporter intensity values: EIF3F / Log2 reporter intensity values: replicates A-C; for Log2 t-test Difference / Log2 reporter intensity values: EIF3F
# [3] = target: T1, DUBs and other proteins in HEK293 cells (Homo sapiens, UniProt P51665); conditions: replicates A-C; for Log2 reporter intensity values: PSMD7: competition with ABP 2, DMSO substract (FC); for Log2 reporter intensity values: PSMD7, DMSO subtracted
# T1 sequence (P51665 1-324): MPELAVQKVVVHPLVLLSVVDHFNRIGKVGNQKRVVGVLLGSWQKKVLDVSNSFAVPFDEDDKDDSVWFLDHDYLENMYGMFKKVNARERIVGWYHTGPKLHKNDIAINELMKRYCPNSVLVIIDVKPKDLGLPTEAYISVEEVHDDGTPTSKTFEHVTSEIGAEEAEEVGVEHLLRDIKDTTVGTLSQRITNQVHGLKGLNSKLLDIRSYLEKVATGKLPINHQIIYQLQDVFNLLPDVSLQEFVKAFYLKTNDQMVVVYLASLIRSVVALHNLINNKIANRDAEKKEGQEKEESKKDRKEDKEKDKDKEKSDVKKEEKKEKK
# [4] = target: DUBs and other proteins in HEK293 cells (Homo sapiens, UniProt Q9Y5T5); conditions: replicates A-C; for Log2 reporter intensity values: USP16: competition with ABP 2, DMSO substract (FC); for Log2 reporter intensity values: USP16, DMSO subtracted
# [5] = target: DUBs and other proteins in HEK293 cells (Homo sapiens, UniProt Q93008); conditions: replicates A-C; for Log2 reporter intensity values: USP9X;USP9Y: competition with ABP 2, DMSO substract (FC); for Log2 reporter intensity values: USP9X;USP9Y, DMSO subtracted
# [6] = target: DUBs and other proteins in HEK293 cells (Homo sapiens, UniProt Q96BN8); conditions: replicates A-C; for Log2 reporter intensity values: OTULIN: competition with ABP 2, DMSO substract (FC); for Log2 reporter intensity values: OTULIN, DMSO subtracted
# [7] = target: T2, DUBs and other proteins in HEK293 cells (Homo sapiens, UniProt Q96K76); conditions: replicates A-C; for Log2 reporter intensity values: USP47: competition with ABP 2, DMSO substract (FC); for Log2 reporter intensity values: USP47, DMSO subtracted
# T2 sequence (Q96K76 1-1375): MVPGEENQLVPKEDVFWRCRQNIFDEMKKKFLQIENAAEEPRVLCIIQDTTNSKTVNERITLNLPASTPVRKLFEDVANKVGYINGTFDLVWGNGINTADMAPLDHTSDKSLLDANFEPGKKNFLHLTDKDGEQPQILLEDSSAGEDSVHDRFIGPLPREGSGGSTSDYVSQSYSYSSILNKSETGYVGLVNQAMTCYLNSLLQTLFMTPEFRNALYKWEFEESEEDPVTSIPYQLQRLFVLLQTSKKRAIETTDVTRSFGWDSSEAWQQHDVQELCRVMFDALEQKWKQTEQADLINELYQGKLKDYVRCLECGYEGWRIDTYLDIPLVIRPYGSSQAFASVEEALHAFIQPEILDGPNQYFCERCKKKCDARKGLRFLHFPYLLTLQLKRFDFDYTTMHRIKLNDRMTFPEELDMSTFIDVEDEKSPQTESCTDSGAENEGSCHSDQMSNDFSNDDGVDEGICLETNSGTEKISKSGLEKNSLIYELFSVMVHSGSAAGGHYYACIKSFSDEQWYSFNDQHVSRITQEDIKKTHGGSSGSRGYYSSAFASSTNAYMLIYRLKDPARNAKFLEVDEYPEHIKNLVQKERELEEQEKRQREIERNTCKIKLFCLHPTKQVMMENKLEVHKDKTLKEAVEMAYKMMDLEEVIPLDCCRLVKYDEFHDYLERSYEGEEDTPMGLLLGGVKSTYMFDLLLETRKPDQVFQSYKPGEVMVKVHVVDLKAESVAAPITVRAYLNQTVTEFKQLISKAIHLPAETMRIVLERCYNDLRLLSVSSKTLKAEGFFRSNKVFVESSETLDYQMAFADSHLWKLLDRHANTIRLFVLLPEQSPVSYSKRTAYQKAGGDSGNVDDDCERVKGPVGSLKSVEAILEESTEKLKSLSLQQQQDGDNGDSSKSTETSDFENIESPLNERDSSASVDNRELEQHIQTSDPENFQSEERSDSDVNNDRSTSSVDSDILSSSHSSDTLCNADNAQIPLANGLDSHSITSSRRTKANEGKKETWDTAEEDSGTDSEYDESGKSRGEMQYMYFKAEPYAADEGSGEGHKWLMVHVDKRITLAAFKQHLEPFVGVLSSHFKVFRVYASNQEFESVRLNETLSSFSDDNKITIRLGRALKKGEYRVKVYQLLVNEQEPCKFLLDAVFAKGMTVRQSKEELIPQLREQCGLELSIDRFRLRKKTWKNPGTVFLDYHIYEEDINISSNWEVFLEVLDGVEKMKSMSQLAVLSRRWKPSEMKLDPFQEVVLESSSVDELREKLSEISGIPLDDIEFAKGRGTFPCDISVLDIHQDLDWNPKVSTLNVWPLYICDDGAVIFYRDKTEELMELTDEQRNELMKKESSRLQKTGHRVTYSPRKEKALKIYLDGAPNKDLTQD
# [8] = 1 μM 3 (60 min) + 20 nM ABP 2 (10 min), All values
# [9] = 1 μM 3 (60 min) + 20 nM ABP 2 (10 min), DMSO subtracted
# [10] = 4 μM 3 (60 min) + 20 nM ABP 2 (10 min), All values
# [11] = 4 μM 3 (60 min) + 20 nM ABP 2 (10 min), DMSO subtracted
# DUBs and other proteins in HEK293 cells (Homo sapiens, UniProt Q9Y5T5), sequence (Q9Y5T5 whole entry): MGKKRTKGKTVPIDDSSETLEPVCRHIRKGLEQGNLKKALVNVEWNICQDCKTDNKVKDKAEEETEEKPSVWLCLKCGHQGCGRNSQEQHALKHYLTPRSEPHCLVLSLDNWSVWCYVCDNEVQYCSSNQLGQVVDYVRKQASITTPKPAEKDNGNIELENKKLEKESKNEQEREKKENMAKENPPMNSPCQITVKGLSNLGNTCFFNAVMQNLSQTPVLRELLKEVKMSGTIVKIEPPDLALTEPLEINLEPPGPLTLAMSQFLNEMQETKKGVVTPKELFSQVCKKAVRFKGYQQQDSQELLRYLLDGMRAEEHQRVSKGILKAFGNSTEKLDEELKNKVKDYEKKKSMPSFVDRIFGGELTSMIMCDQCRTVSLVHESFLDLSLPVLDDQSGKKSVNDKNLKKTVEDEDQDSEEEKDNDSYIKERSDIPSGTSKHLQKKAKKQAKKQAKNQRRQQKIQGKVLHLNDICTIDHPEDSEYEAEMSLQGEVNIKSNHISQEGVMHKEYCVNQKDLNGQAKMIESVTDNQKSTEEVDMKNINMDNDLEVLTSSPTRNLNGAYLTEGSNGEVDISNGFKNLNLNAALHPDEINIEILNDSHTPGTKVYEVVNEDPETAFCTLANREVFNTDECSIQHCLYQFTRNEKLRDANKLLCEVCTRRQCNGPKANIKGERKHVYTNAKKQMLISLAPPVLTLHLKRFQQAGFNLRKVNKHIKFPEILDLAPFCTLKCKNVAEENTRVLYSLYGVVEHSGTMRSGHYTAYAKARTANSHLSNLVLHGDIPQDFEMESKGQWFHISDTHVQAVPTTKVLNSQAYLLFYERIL
# DUBs and other proteins in HEK293 cells (Homo sapiens, UniProt Q93008), sequence (Q93008 whole entry): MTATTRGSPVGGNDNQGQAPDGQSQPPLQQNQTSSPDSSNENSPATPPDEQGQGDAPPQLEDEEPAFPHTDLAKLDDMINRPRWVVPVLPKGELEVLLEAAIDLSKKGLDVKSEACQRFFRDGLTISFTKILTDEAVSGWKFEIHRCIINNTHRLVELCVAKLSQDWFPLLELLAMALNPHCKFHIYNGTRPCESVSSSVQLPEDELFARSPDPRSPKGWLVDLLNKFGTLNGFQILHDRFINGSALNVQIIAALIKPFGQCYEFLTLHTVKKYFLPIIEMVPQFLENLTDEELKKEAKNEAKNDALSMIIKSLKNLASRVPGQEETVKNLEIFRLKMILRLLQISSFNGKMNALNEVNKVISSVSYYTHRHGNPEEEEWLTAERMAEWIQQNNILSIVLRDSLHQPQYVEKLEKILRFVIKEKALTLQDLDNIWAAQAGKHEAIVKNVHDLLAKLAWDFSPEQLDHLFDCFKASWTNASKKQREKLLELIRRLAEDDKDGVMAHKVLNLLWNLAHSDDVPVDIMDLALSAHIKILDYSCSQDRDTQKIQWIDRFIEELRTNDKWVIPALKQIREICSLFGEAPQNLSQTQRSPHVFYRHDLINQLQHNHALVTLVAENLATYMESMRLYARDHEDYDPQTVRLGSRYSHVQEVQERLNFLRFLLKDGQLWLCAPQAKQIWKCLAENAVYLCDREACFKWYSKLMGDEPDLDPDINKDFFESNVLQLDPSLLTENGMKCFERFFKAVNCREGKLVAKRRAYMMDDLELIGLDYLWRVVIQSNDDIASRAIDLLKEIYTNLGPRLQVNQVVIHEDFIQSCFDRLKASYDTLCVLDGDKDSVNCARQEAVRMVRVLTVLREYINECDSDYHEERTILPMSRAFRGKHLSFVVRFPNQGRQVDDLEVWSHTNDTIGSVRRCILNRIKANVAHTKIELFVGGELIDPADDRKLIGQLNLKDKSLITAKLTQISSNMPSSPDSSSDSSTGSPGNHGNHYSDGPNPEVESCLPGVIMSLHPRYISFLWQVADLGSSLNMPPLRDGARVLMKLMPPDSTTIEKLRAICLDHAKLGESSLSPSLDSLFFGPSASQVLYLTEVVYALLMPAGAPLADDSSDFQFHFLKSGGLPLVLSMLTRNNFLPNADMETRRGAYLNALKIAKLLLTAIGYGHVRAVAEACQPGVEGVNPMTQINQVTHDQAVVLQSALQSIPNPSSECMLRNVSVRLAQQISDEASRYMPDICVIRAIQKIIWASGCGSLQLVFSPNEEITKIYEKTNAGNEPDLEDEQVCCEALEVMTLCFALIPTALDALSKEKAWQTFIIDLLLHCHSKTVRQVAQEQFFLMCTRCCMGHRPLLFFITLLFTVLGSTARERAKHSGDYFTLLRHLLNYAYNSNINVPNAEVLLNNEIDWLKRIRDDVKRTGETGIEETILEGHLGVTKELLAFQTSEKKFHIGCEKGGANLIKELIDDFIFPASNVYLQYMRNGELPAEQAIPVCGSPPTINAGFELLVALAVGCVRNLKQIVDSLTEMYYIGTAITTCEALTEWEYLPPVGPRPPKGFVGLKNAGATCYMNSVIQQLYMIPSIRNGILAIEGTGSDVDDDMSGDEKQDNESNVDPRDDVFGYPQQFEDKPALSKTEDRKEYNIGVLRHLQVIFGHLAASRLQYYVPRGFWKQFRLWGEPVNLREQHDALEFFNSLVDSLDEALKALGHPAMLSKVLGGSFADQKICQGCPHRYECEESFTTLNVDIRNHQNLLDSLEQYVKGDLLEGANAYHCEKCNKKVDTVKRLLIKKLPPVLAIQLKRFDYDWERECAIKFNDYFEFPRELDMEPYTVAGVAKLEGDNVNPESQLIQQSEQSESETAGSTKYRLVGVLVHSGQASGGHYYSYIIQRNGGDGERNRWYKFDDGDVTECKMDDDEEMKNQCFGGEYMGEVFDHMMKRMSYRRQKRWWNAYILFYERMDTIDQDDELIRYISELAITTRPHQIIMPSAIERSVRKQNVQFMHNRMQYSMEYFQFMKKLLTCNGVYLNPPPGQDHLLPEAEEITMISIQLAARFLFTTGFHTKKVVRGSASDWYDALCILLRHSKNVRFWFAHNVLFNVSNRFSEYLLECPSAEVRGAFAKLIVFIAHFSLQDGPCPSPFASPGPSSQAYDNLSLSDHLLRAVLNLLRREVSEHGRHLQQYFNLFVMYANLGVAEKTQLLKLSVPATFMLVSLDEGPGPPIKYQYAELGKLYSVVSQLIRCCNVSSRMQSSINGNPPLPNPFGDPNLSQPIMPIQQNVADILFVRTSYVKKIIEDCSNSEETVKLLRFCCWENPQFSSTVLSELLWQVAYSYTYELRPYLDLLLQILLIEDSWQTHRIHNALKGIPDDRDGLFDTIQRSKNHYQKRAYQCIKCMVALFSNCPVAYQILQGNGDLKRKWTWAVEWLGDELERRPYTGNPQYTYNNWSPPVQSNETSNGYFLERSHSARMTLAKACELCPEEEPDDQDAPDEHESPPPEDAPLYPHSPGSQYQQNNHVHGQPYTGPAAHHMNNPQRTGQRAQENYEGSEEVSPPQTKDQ
# DUBs and other proteins in HEK293 cells (Homo sapiens, UniProt Q7L5N1), sequence (Q7L5N1 whole entry): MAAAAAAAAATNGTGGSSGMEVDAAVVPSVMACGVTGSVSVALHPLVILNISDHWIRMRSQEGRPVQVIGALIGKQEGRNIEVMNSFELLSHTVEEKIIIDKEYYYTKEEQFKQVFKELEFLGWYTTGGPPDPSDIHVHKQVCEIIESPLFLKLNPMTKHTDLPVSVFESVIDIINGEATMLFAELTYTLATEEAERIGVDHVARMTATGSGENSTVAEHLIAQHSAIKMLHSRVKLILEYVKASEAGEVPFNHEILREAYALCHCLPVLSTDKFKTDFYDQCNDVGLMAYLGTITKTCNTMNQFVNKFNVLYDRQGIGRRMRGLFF
# DUBs and other proteins in HEK293 cells (Homo sapiens, UniProt O00303), sequence (O00303 whole entry): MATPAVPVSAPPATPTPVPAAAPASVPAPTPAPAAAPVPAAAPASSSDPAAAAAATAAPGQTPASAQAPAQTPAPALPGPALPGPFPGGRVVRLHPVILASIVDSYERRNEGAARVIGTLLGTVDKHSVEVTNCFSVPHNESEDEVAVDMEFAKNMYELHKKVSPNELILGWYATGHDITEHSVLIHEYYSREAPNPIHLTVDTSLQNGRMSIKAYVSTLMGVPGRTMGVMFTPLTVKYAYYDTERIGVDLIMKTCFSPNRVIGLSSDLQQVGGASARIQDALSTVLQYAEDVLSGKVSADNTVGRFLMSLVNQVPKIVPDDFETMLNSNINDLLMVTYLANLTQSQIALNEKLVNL
# DUBs and other proteins in HEK293 cells (Homo sapiens, UniProt Q96BN8), sequence (Q96BN8 whole entry): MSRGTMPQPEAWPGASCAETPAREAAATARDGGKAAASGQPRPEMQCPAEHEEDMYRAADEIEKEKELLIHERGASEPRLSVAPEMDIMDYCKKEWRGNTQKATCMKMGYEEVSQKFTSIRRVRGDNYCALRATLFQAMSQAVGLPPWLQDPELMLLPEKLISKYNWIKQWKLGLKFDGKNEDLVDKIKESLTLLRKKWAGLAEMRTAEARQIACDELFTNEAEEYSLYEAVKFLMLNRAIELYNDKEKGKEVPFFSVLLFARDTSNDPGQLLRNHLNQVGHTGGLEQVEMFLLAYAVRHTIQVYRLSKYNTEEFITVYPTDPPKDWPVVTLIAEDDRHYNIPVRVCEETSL
structure (smiles),measurement,setting,value
N#CN1CCC[C@@H]1C(=O)N1CCc2c(-c3c[nH]c4ncccc34)cccc21 [Compound 3],"Log2 reporter intensity values, COPS6",[1]; [8],0.04099 and 0.07831 and 0.06581
same,"Log2 reporter intensity values, COPS6",[1]; [9],0.02857 and 0.06589 and 0.0534
same,"Log2 reporter intensity values, COPS6",[1]; [10],-0.1551 and -0.06324 and -0.1331
same,"Log2 reporter intensity values, COPS6",[1]; [11],-0.1675 and -0.07565 and -0.1455
same,Log2 reporter intensity values: COPS6,[1]; 3 at 1 μM,1.02 and 1.047 and 1.038
same,Log2 reporter intensity values: COPS6,[1]; 3 at 4 μM,0.8904 and 0.9489 and 0.9041
same,Log2 t-test Difference,[1]; 3 - 1 μM,0.00565
same,Log2 t-test Difference,[1]; 3 - 4 μM,-0.1732
same,Log2 reporter intensity values,"[1]; 3_1 μM, DMSO subtracted",0.01989 and 0.04662 and 0.0376
same,Log2 reporter intensity values,"[1]; 3_4 μM, DMSO subtracted",-0.1098 and -0.0512 and -0.09603
same,Log2 reporter intensity values,"[1]; 3 at 1 μM, DMSO subtracted",0.02857 and 0.06589 and 0.0534
same,Log2 reporter intensity values,"[1]; 3 at 4 μM, DMSO subtracted",-0.1675 and -0.07565 and -0.1455
same,"Log2 reporter intensity values, EIF3F",[2]; [8],0.01809 and -0.02026 and 0.07981
same,"Log2 reporter intensity values, EIF3F",[2]; [9],0.02764 and -0.01071 and 0.08936
same,"Log2 reporter intensity values, EIF3F",[2]; [10],-0.1978 and 0.02104 and -0.01378
same,"Log2 reporter intensity values, EIF3F",[2]; [11],-0.1882 and 0.03059 and -0.004226
same,Log2 reporter intensity values: EIF3F,[2]; 3 at 1 μM,1.019 and 0.9926 and 1.064
same,Log2 reporter intensity values: EIF3F,[2]; 3 at 4 μM,0.8777 and 1.021 and 0.9971
same,Log2 t-test Difference,[2]; 3 - 1 μM,-0.05527
same,Log2 t-test Difference,[2]; 3 - 4 μM,-0.1447
same,Log2 reporter intensity values,"[2]; 3_1 μM, DMSO subtracted",0.01893 and -0.007817 and 0.06348
same,Log2 reporter intensity values,"[2]; 3_4 μM, DMSO subtracted",-0.1227 and 0.02101 and -0.003343
same,Log2 reporter intensity values,"[2]; 3 at 1 μM, DMSO subtracted",0.02764 and -0.01071 and 0.08936
same,Log2 reporter intensity values,"[2]; 3 at 4 μM, DMSO subtracted",-0.1882 and 0.03059 and -0.004226
same,Log2 reporter intensity values: PSMD7,[3]; 3 at 1 μM,1.2 and 1.081 and 1.198
same,Log2 reporter intensity values: PSMD7,[3]; 3 at 4 μM,1.083 and 1.233 and 0.9957
same,Log2 reporter intensity values,[3]; 3_1 μM,0.1973 and 0.07834 and 0.1956
same,Log2 reporter intensity values,[3]; 3_4 μM,0.08024 and 0.2301 and -0.006858
same,Log2 reporter intensity values,[3]; 3 at 1 μM,0.2629 and 0.1122 and 0.2608
same,Log2 reporter intensity values,[3]; 3 at 4 μM,0.1148 and 0.3017 and -0.006207
same,Log2 reporter intensity values: USP16,[4]; 3 at 1 μM,1.04 and 1.242 and 1.156
same,Log2 reporter intensity values: USP16,[4]; 3 at 4 μM,1.088 and 0.9104 and 1.039
same,Log2 reporter intensity values,[4]; 3_1 μM,0.03732 and 0.2403 and 0.1536
same,Log2 reporter intensity values,[4]; 3_4 μM,0.08611 and -0.09176 and 0.0368
same,Log2 reporter intensity values,[4]; 3 at 1 μM,0.0559 and 0.3132 and 0.2089
same,Log2 reporter intensity values,[4]; 3 at 4 μM,0.1221 and -0.1354 and 0.05518
same,Log2 reporter intensity values: USP9X;USP9Y,[5]; 3 at 1 μM,1.02 and 0.9178 and 0.9768
same,Log2 reporter intensity values: USP9X;USP9Y,[5]; 3 at 4 μM,0.9914 and 0.9828 and 0.9945
same,Log2 reporter intensity values,[5]; 3_1 μM,0.02022 and -0.08228 and -0.02322
same,Log2 reporter intensity values,[5]; 3_4 μM,-0.008621 and -0.01719 and -0.00552
same,Log2 reporter intensity values,[5]; 3 at 1 μM,0.02892 and -0.1238 and -0.03385
same,Log2 reporter intensity values,[5]; 3 at 4 μM,-0.01245 and -0.02497 and -0.007941
same,Log2 reporter intensity values: OTULIN,[6]; 3 at 1 μM,1.194 and 0.9889 and 0.9216
same,Log2 reporter intensity values: OTULIN,[6]; 3 at 4 μM,0.8963 and 0.9821 and 1.002
same,Log2 reporter intensity values,[6]; 3_1 μM,0.1933 and -0.01163 and -0.07888
same,Log2 reporter intensity values,[6]; 3_4 μM,-0.1043 and -0.01848 and 0.001875
same,Log2 reporter intensity values,[6]; 3 at 1 μM,0.2556 and -0.01611 and -0.1177
same,Log2 reporter intensity values,[6]; 3 at 4 μM,-0.158 and -0.02613 and 0.003463
same,Log2 reporter intensity values: USP47,[7]; 3 at 1 μM,1.001 and 0.9758 and 1.097
same,Log2 reporter intensity values: USP47,[7]; 3 at 4 μM,0.9921 and 1.112 and 1.049
same,Log2 reporter intensity values,[7]; 3_1 μM,0.0008917 and -0.02426 and 0.09736
same,Log2 reporter intensity values,[7]; 3_4 μM,-0.008057 and 0.1123 and 0.04861
same,Log2 reporter intensity values,[7]; 3 at 1 μM,0.001442 and -0.03527 and 0.1342
same,Log2 reporter intensity values,[7]; 3 at 4 μM,-0.01151 and 0.1537 and 0.06863
